Reference: patent US10119122B2, “Differentiation and expansion of endothelial cells from pluripotent stem cells and the in vitro formation of vasculature like structures” (Academisch Ziekenhuis Leiden, priority 2013, dated 2018)

What was measured:
Format in all cases: cell-based, human
[1] = test system: control iPSC-derived ECs co-cultured with control iPSC-derived pericytes/mesenchymal cells; experiment: 2D endothelial-pericyte co-culture sprouting assay, control ECs; details: for sprout formation / number of endothelial sprouts: SB431542 (10 μM in FIG. 20 legend); for total area covered by endothelial sprouts: SB431542
Protocol: (§1) The endothelial capillary-like network formation assay was carried out as previously described but with major modifications (Evensen et al., 2013). These included using both ECs and pericytes derived from human iPSC lines. This is described in more detail elsewhere (Orlova et al., manuscript in preparation). ECs were labelled with the general cytoplasmic labeling dye (PKH-26). For the sprouting assay, 12,000 ECs derived from both control and diseased lines were plated with 50,000 control iPSC-derived pericytes/well on 0.1% gelatin coated 96-well plates in EGM-2 (Lonza, CC-3162). Next day and on the day 4 of the assay, medium was replaced with new EGM-2 media containing tested compounds as indicated in the figure legends. Endothelial-pericyte co-culture was terminated on day 7 of the assay each well immunofluorescently stained for quantification, as follows: co-cultures were fixed with the 4% paraformaldehyde (PFA), permeabilized with the 0.1% TX-100 and blocked with the normal goat serum (Dako). Endothelial sprouts were visualized with the mouse anti-CD31 (Dako, 1:200). In some experiment with the mouse blocking antibodies, rabbit anti-CD31 (Scbt, 1:200) was used instead. Pericytes were visualized with antibodies against SM22 (Sigma, 1:200). The endothelial network was imaged with the BD Pathway 855 system using the 4× or 10× objective and 2×2 (or 3×3) Montage mode. Total area covered by the endothelial sprouts was quantified with the protocol developed within cell image analysis software CellProfiller (Broad Institute). High magnification images were acquired with the SP5 confocal microscope, using 10× and 40× objectives.
A two-dimensional co-culture system was first established in vitro consisting of control iPSC-derived ECs cultured with the control iPSC-derived mesenchymal cells (FIG. 10A). The protocol was optimized and adapted to the BD Pathway 855 imaging system, based on the protocol initially described for the co-culture of HUVECs and vascular SMCs (vSMCs) (Evensen et al., 2013). On day 7 of the co-culture, iPSC-derived EC had organized and formed spouts on the top mesenchymal cells, as evidenced by immunofluorescent staining with the EC-specific CD31 and SMC-specific SM22 markers (FIG. 10B).
(§2) Endothelial cell-pericyte co-culture was performed as described previously (Evensen et al., 2013) but using conditions optimized for iPSC-derived ECs and pericytes as described (Orlova et al., manuscript in preparation). In brief, 12,000 and 50,000 iPSC-derived ECs and pericytes were plated, respectively, in each well of a 96-well plate. Next day the co-cultures were refreshed with the specific treatment conditions indicated. The co-culture was fixed on day 7, and EC sprouts stained with anti-CD31 antibody (1:200, Dako) (as described in Orlova et al., manuscript in preparation). Pericytes were visualized with the anti-SM22 antibody (1:200, Abcam). The BD Pathway 855 system was used for automatic image acquisition, with the 4× objective and 2×2 (or in some cases 3×3) montage mode. CellProfiller (Broad Institute) custom pipeline was used for the image quantification.

[2] = test system: iPSC-derived pericytes/mesenchymal cells; experiment: Contractile smooth muscle marker expression in iPSC-derived pericytes/mesenchymal cells; details: ALK5 inhibitor
Protocol: Our differentiation system facilitates simultaneous derivation and expansion of pericytes and ECs from iPSC lines. […] Thus, a renewable source of pericytes/SMCs was created for co-culture with ECs that would in principle be able to simulate endothelial-pericyte interaction in humans.
iPSC-derived pericytes/mesenchymal cells were derived from the CD31− fraction emerging during the endothelial differentiation protocol. CD31− cells were plated on gelatin coated plates in EGM-2 media (Lonza). After 4 days medium was replaced by DMEM+10% FBS supplemented with TGFβ3 (2 ng/ml, Peprotech) and PDGF-BB (4 ng/ml, Peprotech). iPSC-derived pericytes were routinely maintained on gelatin-coated plates in DMEM+10% FBS. Cells were characterized for the expression of pericyte and mesenchymal cell-specific markers by flow cytometry and immunofluorescent staining as describe above.
ECs and pericytes were cultured as described above on gelatin coated coverslips. Cells were fixed with 4% PFA, permeabilized and stained with the following antibodies as described (Orlova et al., Manuscript in preparation): anti-Ve-Cadherin (1:200, CellSignaling), anti-vWF (1:200, Dako), anti-CD31 (1:200, Dako), anti-SM22a (1:200, Abcam), anti-SMA (1:400, Sigma), anti-CNN1 (1:200, Sigma).

[3] = test system: HHT1-iPSC-derived ECs co-cultured with control iPSC-derived pericytes; experiment: 2D endothelial-pericyte co-culture sprouting assay, HHT1 patient ECs; details: SB431542 added with TGFβ3 (1 ng/ml) or BMP9 (1 ng/ml); day 7; control and HHT1-iPSC ECs (FIG. 17)
Protocol: as §1
It was hypothesized that this system might be useful for distinguishing […] versus paracrine effects of endoglin deficiency in HHT1-iPSCs-derived ECs. Therefore, ECs from HHT-iPSC lines in the co-culture assay combined with the pericytes derived from the control iPSCs were examined. Little difference was observed between ECs from HHT1 and control iPSCs in co-culture. ECs from the patient harboring the 1083delAA and IVS 5+2 (T>C) mutation similar endothelial sprout formation as the controls (FIGS. 11A and 11B).
as §2

[4] = day 7, listed as ALK5 inhibitor

Structure (SMILES): NC(=O)c1ccc(-c2nc(-c3ccc4c(c3)OCO4)c(-c3ccccn3)[nH]2)cc1 [SB431542, reference compound]
- SM22 fluorescence intensity in endothelial-pericyte co-culture ([1]; ALK5 inhibitor, day 7, confocal imaging and quantification): increase in SM22 fluorescence intensity
- endothelial cell proliferation (Ki67+ ECs) ([1]; SB431542 10 μM, day 7 co-culture): Increased endothelial cell proliferation
- sprout formation / number of endothelial sprouts ([1]; day 7): enhancement of sprout formation
- sprout formation / number of endothelial sprouts [1, 4]: significant increase in number of endothelial sprouts
- total area covered by endothelial sprouts ([1]; day 7): increase in the total area covered by endothelial sprouts
- total area covered by endothelial sprouts [1, 4]: significant increase
- SM22 expression in pericytes [2]: no effect on SM22 expression in pericytes
- rescue of ligand-induced inhibition of sprout formation [3]: rescued the inhibitory effect of both TGFβ3 and BMP-9
